Assay results reported in patent publication US7008630B2, “Lipochroman-6 as NO-synthase inhibitor and uses” (L' Oreal, priority 2000, dated 2006).

Biological target: T1, inducible NO-synthase (NO-synthase 2) (Homo sapiens, UniProt P35228)
T1 construct: positive control (induction of the enzyme): mixtures of γ-interferon (1 000 U/ml) and interleukin-1β (100 U/ml); endogenous in cells
Assay: Activity on inducible NO-synthase: decrease in nitrate and nitrite concentration after stimulation of NO-synthase 2 (test of Heck et al.)
Type: cell-based
Conditions: for % inhibition: induction with γ-interferon 1 000 U/ml and interleukin-1β 100 U/ml, nitrites and nitrates measured
Description: The activity of lipochroman-6 on inducible NO-synthase was evaluated in the test described by Heck et al. (J. B. C., Vol. 267, No. 30, 21277–21280, Oct. 25, 1992).
In order to determine the activity of the product to be tested, the amount of stable NO reaction products (nitrites and nitrates) is measured using the nitric calorimetric assay kit sold by the company Boehringer under the reference 1756.28.
The lipochroman-6 was tested at the concentrations of 0.005% and 0.01% (weight/volume) in ethanol.

T1 sequence (P35228 whole entry, species assumed): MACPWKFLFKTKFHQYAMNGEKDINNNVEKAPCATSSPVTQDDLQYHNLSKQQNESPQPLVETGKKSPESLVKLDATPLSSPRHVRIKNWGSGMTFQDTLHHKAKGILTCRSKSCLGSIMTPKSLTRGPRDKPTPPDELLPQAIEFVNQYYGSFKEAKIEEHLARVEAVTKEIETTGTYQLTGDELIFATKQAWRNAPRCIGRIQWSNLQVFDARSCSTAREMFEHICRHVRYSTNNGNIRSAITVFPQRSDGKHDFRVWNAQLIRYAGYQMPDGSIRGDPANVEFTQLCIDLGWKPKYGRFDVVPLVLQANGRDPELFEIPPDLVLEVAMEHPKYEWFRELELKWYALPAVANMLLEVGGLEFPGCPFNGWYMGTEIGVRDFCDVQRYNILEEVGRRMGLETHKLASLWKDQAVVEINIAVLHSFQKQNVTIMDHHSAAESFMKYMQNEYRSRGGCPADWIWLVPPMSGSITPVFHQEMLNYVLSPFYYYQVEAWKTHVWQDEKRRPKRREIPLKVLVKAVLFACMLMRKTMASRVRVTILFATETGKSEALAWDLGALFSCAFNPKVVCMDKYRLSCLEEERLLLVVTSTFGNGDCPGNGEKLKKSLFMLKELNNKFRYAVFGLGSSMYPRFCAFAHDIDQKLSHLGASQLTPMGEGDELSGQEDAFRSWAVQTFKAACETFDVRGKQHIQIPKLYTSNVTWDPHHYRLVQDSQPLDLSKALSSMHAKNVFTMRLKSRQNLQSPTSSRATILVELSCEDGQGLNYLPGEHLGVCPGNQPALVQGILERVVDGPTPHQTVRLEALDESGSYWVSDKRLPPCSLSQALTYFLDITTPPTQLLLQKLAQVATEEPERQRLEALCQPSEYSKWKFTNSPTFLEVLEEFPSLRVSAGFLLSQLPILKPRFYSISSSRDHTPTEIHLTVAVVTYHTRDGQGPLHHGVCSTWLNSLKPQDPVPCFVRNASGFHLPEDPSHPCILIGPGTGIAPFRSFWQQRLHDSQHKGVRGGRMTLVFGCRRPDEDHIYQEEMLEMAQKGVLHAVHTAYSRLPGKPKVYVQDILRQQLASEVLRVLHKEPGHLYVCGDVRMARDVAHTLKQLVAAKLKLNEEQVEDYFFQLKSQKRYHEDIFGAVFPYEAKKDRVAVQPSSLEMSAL

effect on inducible NO-synthase (in words): inhibitory effect
% inhibition (lipochroman-6 at 0.005% (weight/volume) in ethanol): 38%
% inhibition (lipochroman-6 at 0.01% (weight/volume) in ethanol): 95%
Structure (SMILES): COc1cc2c(cc1O)CCC(C)(C)O2 [Lipochroman-6, lipochroman-6]
